According to ChEMBL document CHEMBL5042535, “Structure-Based Design and Synthesis of N-Substituted 3-Amino-β-Carboline Derivatives as Potent αβ-Tubulin Degradation Agents” (J Med Chem, 2022):

Assays:
Format in all cases: functional, cell-based
MCF7 = experiment: Antiproliferative activity against human MCF7 cells assessed as reduction in cell viability measured after 24 hrs by MTT assay; conditions: MCF7, 24 h
NCI-H460 = experiment: Antiproliferative activity against human NCI-H460 cells assessed as reduction in cell viability measured after 24 hrs by MTT assay; conditions: NCI-H460, 24 h
Raji = experiment: Antiproliferative activity against human Raji cells assessed as reduction in cell viability measured after 24 hrs by MTT assay
A2780S = experiment: Antiproliferative activity against human A2780S cells assessed as reduction in cell viability measured after 24 hrs by MTT assay
HeLa = experiment: Antiproliferative activity against human HeLa cells assessed as reduction in cell viability measured after 24 hrs by MTT assay

| Structure (SMILES) | IC50 (MCF7) [nM] | IC50 (NCI-H460) [nM] | IC50 (Raji) [nM] | IC50 (A2780S) [nM] | IC50 (HeLa) [nM] |
| --- | --- | --- | --- | --- | --- |
| N#Cc1cccc(Oc2cccc(CNc3cc4c(cn3)[nH]c3ccccc34)c2)c1 | > 500 | > 500 | > 500 | > 500 | 500 |
| CC(C)CCOc1cccc(CNc2cc3c(cn2)[nH]c2ccccc23)c1 | > 500 | > 500 | > 500 | > 500 | > 500 |
| COCCOc1cccc(CNc2cc3c(cn2)[nH]c2ccccc23)c1 | > 500 | > 500 | > 500 | > 500 | > 500 |
| Clc1ccc(Oc2cccc(CNc3cc4c(cn3)[nH]c3ccccc34)c2)cc1 | 48 | 222 | 74 | 73 | 45 |
| CC(C)Oc1cccc(CNc2cc3c(cn2)[nH]c2ccccc23)c1 | > 500 | > 500 | > 500 | > 500 | > 500 |
| Cc1cccc(Oc2cccc(CNc3cc4c(cn3)[nH]c3ccccc34)c2)c1 | 47 | 44 | 29 | 44 | 41 |
| c1cc(CNc2cc3c(cn2)[nH]c2ccccc23)cc(OC2CCC2)c1 | > 500 | > 500 | > 500 | > 500 | > 500 |
| c1cc(CNc2cc3c(cn2)[nH]c2ccccc23)cc(Oc2ccc3c(c2)OCCO3)c1 | > 500 | > 500 | > 500 | > 500 | > 500 |
| Clc1cccc(Oc2cccc(CNc3cc4c(cn3)[nH]c3ccccc34)c2)c1 | 39 | 47 | 32 | 60 | 43 |
| c1ccc2c(c1)[nH]c1cnc(NC3CCCC3)cc12 | 397 | > 500 | 242 | 92 | > 500 |
| c1ccc2c(c1)[nH]c1cnc(NCc3ccoc3)cc12 | 71 | 342 | 73 | 93 | 66 |
| CC(C)=CCNc1cc2c(cn1)[nH]c1ccccc12 | > 500 | > 500 | 382 | > 500 | > 500 |
| COc1ccc(COc2cccc(CNc3cc4c(cn3)[nH]c3ccccc34)c2)cc1 | > 500 | > 500 | > 500 | > 500 | > 500 |
| c1ccc2ncc(CNc3cc4c(cn3)[nH]c3ccccc34)cc2c1 | > 500 | > 500 | > 500 | > 500 | > 500 |
| COc1ccc(CNc2cc3c(cn2)[nH]c2ccccc23)cn1 | > 500 | > 500 | > 500 | > 500 | > 500 |
| Cc1ccc(Oc2cccc(CNc3cc4c(cn3)[nH]c3ccccc34)c2)cc1 | 39 | 165 | 57 | 55 | 56 |
| COc1ccc(Oc2cccc(CNc3cc4c(cn3)[nH]c3ccccc34)c2)cc1OC | 432 | > 500 | 383 | 264 | 266 |
| COc1cccc(Oc2cccc(CNc3cc4c(cn3)[nH]c3ccccc34)c2)c1 | 109 | 313 | 178 | 148 | 219 |
| CC(C)=CCOc1cccc(CNc2cc3c(cn2)[nH]c2ccccc23)c1 | > 500 | > 500 | > 500 | > 500 | > 500 |
| c1cncc(Oc2cccc(CNc3cc4c(cn3)[nH]c3ccccc34)c2)c1 | 153 | 333 | 333 | 229 | 209 |
| c1cc(CNc2cc3c(cn2)[nH]c2ccccc23)cc(OC2CCCC2)c1 | > 500 | > 500 | > 500 | > 500 | > 500 |
| Clc1ccccc1Oc1cccc(CNc2cc3c(cn2)[nH]c2ccccc23)c1 | 19 | 74 | 59 | 43 | 63 |
| c1ccc2c(CNc3cc4c(cn3)[nH]c3ccccc34)c[nH]c2c1 | > 500 | > 500 | > 500 | > 500 | > 500 |
| c1ccc(-c2cccc(CNc3cc4c(cn3)[nH]c3ccccc34)c2)cc1 | > 500 | > 500 | > 500 | > 500 | > 500 |
| c1ccc2c(CNc3cc4c(cn3)[nH]c3ccccc34)cccc2c1 | > 500 | > 500 | > 500 | > 500 | > 500 |
| COc1cc(Oc2cccc(CNc3cc4c(cn3)[nH]c3ccccc34)c2)cc(OC)c1OC | > 500 | > 500 | > 500 | > 500 | > 500 |

| Structure (SMILES) | IC50 (MCF7) [nM] | IC50 (NCI-H460) [nM] | IC50 (Raji) [nM] | IC50 (A2780S) [nM] | IC50 (HeLa) [nM] |
| --- | --- | --- | --- | --- | --- |
| COc1cc2c(c(OC)c1OC)-c1ccc(OC)c(=O)cc1[C@@H](NC(C)=O)CC2 [COLCHICINE] | – | 12 | 18 | – | 16 |
| c1csc(CNc2cc3c(cn2)[nH]c2ccccc23)c1 | 424 | > 500 | 257 | > 500 | 412 |
| c1ccc(COc2cccc(CNc3cc4c(cn3)[nH]c3ccccc34)c2)cc1 | > 500 | > 500 | > 500 | > 500 | > 500 |
| CCCCNc1cc2c(cn1)[nH]c1ccccc12 | 513 | 340 | 220 | 175 | > 500 |
| Fc1cccc(Oc2cccc(CNc3cc4c(cn3)[nH]c3ccccc34)c2)c1 | 59 | 50 | 42 | 41 | 71 |
| CC(=O)Nc1ccc(Oc2cccc(CNc3cc4c(cn3)[nH]c3ccccc34)c2)cc1 | 27 | 31 | 15 | 11 | 67 |
| c1ccc(-c2ccc(CNc3cc4c(cn3)[nH]c3ccccc34)cc2)cc1 | > 500 | > 500 | > 500 | > 500 | > 500 |
| N#Cc1ccc(Oc2cccc(CNc3cc4c(cn3)[nH]c3ccccc34)c2)cc1 | 47 | 48 | 37 | 60 | 46 |
| CC(C)CNc1cc2c(cn1)[nH]c1ccccc12 | > 500 | > 500 | > 500 | > 500 | > 500 |
| c1cc2ccc3cccc4c(CNc5cc6c(cn5)[nH]c5ccccc56)cc(c1)c2c34 | > 500 | > 500 | > 500 | > 500 | > 500 |
| Cn1cccc1CNc1cc2c(cn1)[nH]c1ccccc12 | > 500 | 500 | > 500 | > 500 | > 500 |
| FC(F)(F)c1ccc(Oc2cccc(CNc3cc4c(cn3)[nH]c3ccccc34)c2)cc1 | 68 | 47 | 54 | 85 | 81 |
| c1ccc(Oc2ccc(Oc3cccc(CNc4cc5c(cn4)[nH]c4ccccc45)c3)cc2)cc1 | > 500 | > 500 | > 500 | > 500 | > 500 |
| COc1ccccc1Oc1cccc(CNc2cc3c(cn2)[nH]c2ccccc23)c1 | > 500 | > 500 | 500 | > 500 | > 500 |
| c1ccc2c(c1)[nH]c1cnc(NCc3ccsc3)cc12 | 73 | 87 | 43 | 63 | 93 |
| CCOc1cccc(CNc2cc3c(cn2)[nH]c2ccccc23)c1 | > 500 | > 500 | > 500 | > 500 | > 500 |
| CCCCOc1cccc(CNc2cc3c(cn2)[nH]c2ccccc23)c1 | > 500 | > 500 | > 500 | > 500 | > 500 |
| c1ccc2c(c1)[nH]c1cnc(NCC3CCCCC3)cc12 | > 500 | > 500 | > 500 | > 500 | > 500 |
| c1ccc(Oc2cccc(CNc3cc4c(cn3)[nH]c3ccccc34)c2)cc1 | 49 | 62 | 31 | 45 | 51 |
| CCCNc1cc2c(cn1)[nH]c1ccccc12 | > 500 | > 500 | > 500 | > 500 | > 500 |
| c1cc(CNc2cc3c(cn2)[nH]c2ccccc23)cc(Oc2ccc3ncccc3c2)c1 | 64 | 234 | 119 | 78 | 93 |
| COc1ccc(Oc2cccc(CNc3cc4c(cn3)[nH]c3ccccc34)c2)cc1 | 33 | 67 | 20 | 12 | 19 |
| Fc1ccccc1Oc1cccc(CNc2cc3c(cn2)[nH]c2ccccc23)c1 | 93 | 105 | 16 | 73 | 59 |
| CSc1ccc(Oc2cccc(CNc3cc4c(cn3)[nH]c3ccccc34)c2)cc1 | > 500 | > 500 | > 500 | > 500 | > 500 |
| CC(C)COc1cccc(CNc2cc3c(cn2)[nH]c2ccccc23)c1 | > 500 | > 500 | > 500 | > 500 | > 500 |
| CC(=O)Nc1ccccc1Oc1cccc(CNc2cc3c(cn2)[nH]c2ccccc23)c1 | > 500 | > 500 | > 500 | > 500 | > 500 |
